In one data set the test system is HIV protease. Nature of the data set: (§1) Therapeutic index for HIV protease was determined. Conditions: read-out: Therapeutic index.
In data set [1] the test system is Human immunodeficiency virus 1. Nature of the data set: Tested for antiviral activity against HIV-III B strain infected human lymphocyte derived CEM cells. The data set is classed as functional, organism-based, CCRF-CEM.
The next data set deals with CCRF-CEM. Nature of the data set: Tested for the cytotoxic effect in uninfected human lymphocyte derived CEM cells. The data set is classed as functional. The following applies: read-out: TC50 (the source's name).
The target in data set [2] is T1, Human immunodeficiency virus type 1 protease (Human immunodeficiency virus 1, UniProt Q72874). Description: In vitro binding affinity against HIV protease at pH 6.2.
A short description of data set [3]: Maximum concentration obtained in mouse plasma was determined at dose 25 mg/kg. The class given is ADME, organism-based. Further details: dose 25 mg/kg.
In data set [4] the target is T1, Human immunodeficiency virus type 1 protease. Description: Binding affinity towards HIV protease was determined.
In data set [5] the target is Human immunodeficiency virus type 1 protease (Human immunodeficiency virus 1) (UniProt Q72874). Nature of the data set: In vitro binding affinity to HIV protease was determined.
Data set [6] in a line: Bioavailability was obtained by the comparison of AUC of subcutaneous dosing and AUC of oral dosing in mouse at dose 25 mg/kg. The class given is ADME, organism-based. Conditions: in vivo, read-out: Bioavailabiility.
Data set [7] in a line: Half life in mouse plasma at dose 25 mg/kg. Details: dose 25 mg/kg. The class given is ADME, organism-based.
Data set [8] in a line: Area under the curve for the compound is obtained at dose 25 mg/kg. The class given is ADME, organism-based. Details: dose 25 mg/kg. The following applies: mouse, in vivo.
Another data set concerns Mus musculus. Nature of the data set: Time taken for EC90 was determined when tested in mouse at dose 25 mg/kg. Further details: dose 25 mg/kg. Conditions: in vivo. The data set is classed as ADME, organism-based.
The target in data set [9] is T1, Human immunodeficiency virus type 1 protease. Description: In vitro binding affinity to HIV protease was determined at pH 4.7.
The nature of data set [10]: as §1.
Setting [11] is: Human immunodeficiency virus 1, CCRF-CEM.

A value given as a limit tells only on which side of the number the result lay.

In the case of `Cc1cc(SC2=C(O)OC(CCc3ccc(N)cc3)(C(C)C)CC2=O)c(C(C)(C)C)cc1N` (stereo not drawn), in the data set on HIV protease, the selectivity ratio is 33. Moreover, the concentration giving a half-maximal response (EC50) (as a rule, the concentration that produces a half-maximal response) in [1] (setting [11]) was 900 nM. Besides, the CC50 with CCRF-CEM was 30000 nM. In addition, the IC50 (as a rule, the concentration needed to halve the response being measured) in data set [2] amounted to 7.5 nM.
Consider `Cc1cc(SC2=C(O)OC(CCc3ccc(O)cc3)(C(C)C)CC2=O)c(C(C)(C)C)cc1NC(=O)c1ccncc1` (stereo not drawn), for which the selectivity ratio in the data set with HIV protease is over 20. The EC50 in data set [1] (setting [11]) worked out at 5100 nM. Besides, the CC50 in the data set with CCRF-CEM is over 100000 nM. The IC50 in [2] was determined as 5.08 nM.
On to `Cc1cc(SC2=C(O)OC(CCc3ccc(O)cc3)(C(C)C)CC2=O)c(C(C)(C)C)cc1NC(=O)c1ccc(C#N)cc1` (stereo not drawn), for which, in the data set with HIV protease, the selectivity ratio was 16. In data set [1] (setting [11]), this compound came in with a concentration for a half-maximal effect (EC50) of 4100 nM. Moreover, the CC50 in the data set on CCRF-CEM was found to be 66000 nM. The compound also showed an IC50 in data set [2] of 5 nM.
With `CC(=O)Nc1cc(C(C)(C)C)c(SC2=C(O)OC(CCc3ccc(O)cc3)(C(C)C)CC2=O)cc1C` (stereo not drawn), the selectivity ratio in the data set with HIV protease was over 21. For the same compound, in data set [1] (setting [11]), the EC50 was determined as 4800 nM. Also, the CC50 in the data set on CCRF-CEM was over 100000 nM. The same compound displayed an IC50 in data set [2] of 3.4 nM.
With `Cc1cc(SC2=C(O)OC(CCc3ccc(O)cc3)(C3CC3)CC2=O)c(C(C)(C)C)cc1N` (stereo not drawn), the selectivity ratio in the data set on HIV protease is 20. For the same compound, the EC50 in data set [1] (setting [11]) is 2500 nM. In the data set on CCRF-CEM, the CC50 was 49000 nM. Moreover, the half-maximal inhibitory concentration (IC50) in data set [2] came to 4.1 nM.
On to `Cc1cc(SC2=C(O)OC(CCc3ccccc3)(C(C)C)CC2=O)c(C(C)(C)C)cc1NC(=O)c1ccc(C#N)cc1` (stereo not drawn), for which the selectivity ratio in the data set with HIV protease amounted to 6. For the same compound, in [1] (setting [11]), it took 8300 nM to reach a half-maximal effect (EC50). For the same compound, the CC50 in the data set on CCRF-CEM stood at 46000 nM. Besides, the IC50 in data set [2] was found to be 14 nM.
With `CC(=O)Nc1cc(C(C)(C)C)c(SC2=C(O)OC(CCc3ccccc3)(C(C)C)CC2=O)cc1C` (stereo not drawn), in the data set on HIV protease, the selectivity ratio stood at 46. In [1] (setting [11]), this compound yielded a concentration for a half-maximal effect (EC50) of 1800 nM. Further, the CC50 in the data set with CCRF-CEM was 83000 nM. Moreover, in [2], the IC50 was 3.5 nM.
In the case of `Cc1cc(SC2=C(O)OC(CCc3ccc(O)cc3)(C(C)C)CC2=O)c(C(C)(C)C)cc1NC(=O)c1ccccn1` (stereo not drawn), the selectivity ratio in the data set on HIV protease was found to be 44. Also, the EC50 in [1] (setting [11]) stood at 1500 nM. For the same compound, the CC50 with CCRF-CEM amounted to 66000 nM. Moreover, in data set [2], the 50% inhibitory concentration (IC50) came to 6.1 nM.
Regarding `Cc1cc(SC2=C(O)OC(CCc3ccc(O)cc3)(C(C)C)CC2=O)c(C(C)(C)C)cc1N` (stereo not drawn), in [3], the Cmax (in general, the maximum level reached in the sampled fluid or tissue) was 21 µM. Further, the selectivity ratio in the data set with HIV protease came out at 92. This compound also registered an EC50 in data set [1] (setting [11]) of 1000 nM. The CC50 in the data set with CCRF-CEM is 92000 nM. The affinity in data set [4] corresponds to a Ki of 0.67 nM. The 90% effect level in data set [5] (EC90) was put at 3500 nM. Moreover, the bioavailability in data set [6] is 59.2%. The half-life (usually the time in which the quantity being followed falls by half) in data set [7] was 2.1 h. Moreover, the area under the curve (AUC) (usually the area under the concentration-time curve, a measure of exposure) in data set [8] was 44.8 µM·h. Also, in the data set with Mus musculus, the “Hours above EC90” value is 3.2. Besides, the half-inhibitory concentration (IC50) in [2] amounted to 2.7 nM.
`Cc1ccc(C(C)(C)C)c(SC2=C(O)O[C@](CCc3ccccc3)(c3ccccc3)CC2=O)c1` returned a half-maximal inhibitory concentration (IC50) in data set [9] of 10 nM.
Regarding `Cc1cc(SC2=C(O)OC(CCc3ccc(O)cc3)(C(C)C)CC2=O)c(C(C)(C)C)cc1N(C)C` (stereo not drawn), the selectivity ratio with HIV protease was 36. Further, in data set [1] (setting [11]), a half-maximal response (EC50) required 1900 nM. Further, the CC50 in the data set on CCRF-CEM came to 68000 nM. In data set [2], the IC50 is 11 nM.
Regarding `CCCC1(CCc2ccc(O)cc2)CC(=O)C(Sc2cc(C)c(N)cc2C(C)(C)C)=C(O)O1` (stereo not drawn), the selectivity ratio with HIV protease worked out at 15. Also, the concentration for a half-maximal effect (EC50) in [1] (setting [11]) came to 4100 nM. Further, in the data set on CCRF-CEM, the CC50 was determined as 62000 nM. For the same compound, in data set [2], the IC50 stood at 3.8 nM.
Consider `CCCCCC1(CCc2ccc(O)cc2)CC(=O)C(Sc2cc(C)c(N)cc2C(C)(C)C)=C(O)O1` (stereo not drawn), for which the selectivity ratio with HIV protease was under 1. The compound also showed an EC50 in data set [1] (setting [11]) of over 24000 nM. For the same compound, in the data set on CCRF-CEM, the CC50 turned out to be 24000 nM. The compound further yielded an IC50 in data set [2] of 7.7 nM.
Turning to `Cc1cc(SC2=C(O)O[C@](CCc3ccc(O)cc3)(C(C)C)CC2=O)c(C(C)(C)C)cc1N` (stereo in doubt; 15R), the Therapeutic index in [10] stood at 2. The compound also registered an EC50 in data set [1] (ccrf-cem) of 91000 nM. Besides, affinity in [4] was put at a Ki of 13 nM.
On to `Cc1cc(SC2=C(O)OC(CCc3ccc(O)cc3)(CC(C)C)CC2=O)c(C(C)(C)C)cc1N` (stereo not drawn), for which the selectivity ratio in the data set on HIV protease is 8. The midpoint of the response in data set [1] (setting [11]), the EC50, lay at 8100 nM. In addition, the CC50 with CCRF-CEM was 62000 nM. The 50% inhibitory concentration (IC50) in data set [2] was 13.5 nM.
